Patent US20240246992A1, “MACROCYCLIC LRRK2 KINASE INHIBITORS” (LES LABORATOIRES SERVIER, priority 2021, published 2024)

These molecules were tested against human recombinant LRRK2 protein (Homo sapiens, UniProt Q5S007) (assay: LRRK2 kinase activity assay (ADP-Glo, LRRKtide peptide)). Details: human recombinant LRRK2 wt, LRRKtide peptide and ATP, 1 h at 37° C.
Assay type: biochemical
How it was run: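 ADP-Glo luminescence read-out of a peptide assay: compound, ATP and LRRKtide substrate combined with recombinant human LRRK2 and incubated at 37 °C for 1 h. Ten-point data, N=2, curve-fitted to IC50.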

Chain of human recombinant LRRK2 protein (Q5S007 whole entry): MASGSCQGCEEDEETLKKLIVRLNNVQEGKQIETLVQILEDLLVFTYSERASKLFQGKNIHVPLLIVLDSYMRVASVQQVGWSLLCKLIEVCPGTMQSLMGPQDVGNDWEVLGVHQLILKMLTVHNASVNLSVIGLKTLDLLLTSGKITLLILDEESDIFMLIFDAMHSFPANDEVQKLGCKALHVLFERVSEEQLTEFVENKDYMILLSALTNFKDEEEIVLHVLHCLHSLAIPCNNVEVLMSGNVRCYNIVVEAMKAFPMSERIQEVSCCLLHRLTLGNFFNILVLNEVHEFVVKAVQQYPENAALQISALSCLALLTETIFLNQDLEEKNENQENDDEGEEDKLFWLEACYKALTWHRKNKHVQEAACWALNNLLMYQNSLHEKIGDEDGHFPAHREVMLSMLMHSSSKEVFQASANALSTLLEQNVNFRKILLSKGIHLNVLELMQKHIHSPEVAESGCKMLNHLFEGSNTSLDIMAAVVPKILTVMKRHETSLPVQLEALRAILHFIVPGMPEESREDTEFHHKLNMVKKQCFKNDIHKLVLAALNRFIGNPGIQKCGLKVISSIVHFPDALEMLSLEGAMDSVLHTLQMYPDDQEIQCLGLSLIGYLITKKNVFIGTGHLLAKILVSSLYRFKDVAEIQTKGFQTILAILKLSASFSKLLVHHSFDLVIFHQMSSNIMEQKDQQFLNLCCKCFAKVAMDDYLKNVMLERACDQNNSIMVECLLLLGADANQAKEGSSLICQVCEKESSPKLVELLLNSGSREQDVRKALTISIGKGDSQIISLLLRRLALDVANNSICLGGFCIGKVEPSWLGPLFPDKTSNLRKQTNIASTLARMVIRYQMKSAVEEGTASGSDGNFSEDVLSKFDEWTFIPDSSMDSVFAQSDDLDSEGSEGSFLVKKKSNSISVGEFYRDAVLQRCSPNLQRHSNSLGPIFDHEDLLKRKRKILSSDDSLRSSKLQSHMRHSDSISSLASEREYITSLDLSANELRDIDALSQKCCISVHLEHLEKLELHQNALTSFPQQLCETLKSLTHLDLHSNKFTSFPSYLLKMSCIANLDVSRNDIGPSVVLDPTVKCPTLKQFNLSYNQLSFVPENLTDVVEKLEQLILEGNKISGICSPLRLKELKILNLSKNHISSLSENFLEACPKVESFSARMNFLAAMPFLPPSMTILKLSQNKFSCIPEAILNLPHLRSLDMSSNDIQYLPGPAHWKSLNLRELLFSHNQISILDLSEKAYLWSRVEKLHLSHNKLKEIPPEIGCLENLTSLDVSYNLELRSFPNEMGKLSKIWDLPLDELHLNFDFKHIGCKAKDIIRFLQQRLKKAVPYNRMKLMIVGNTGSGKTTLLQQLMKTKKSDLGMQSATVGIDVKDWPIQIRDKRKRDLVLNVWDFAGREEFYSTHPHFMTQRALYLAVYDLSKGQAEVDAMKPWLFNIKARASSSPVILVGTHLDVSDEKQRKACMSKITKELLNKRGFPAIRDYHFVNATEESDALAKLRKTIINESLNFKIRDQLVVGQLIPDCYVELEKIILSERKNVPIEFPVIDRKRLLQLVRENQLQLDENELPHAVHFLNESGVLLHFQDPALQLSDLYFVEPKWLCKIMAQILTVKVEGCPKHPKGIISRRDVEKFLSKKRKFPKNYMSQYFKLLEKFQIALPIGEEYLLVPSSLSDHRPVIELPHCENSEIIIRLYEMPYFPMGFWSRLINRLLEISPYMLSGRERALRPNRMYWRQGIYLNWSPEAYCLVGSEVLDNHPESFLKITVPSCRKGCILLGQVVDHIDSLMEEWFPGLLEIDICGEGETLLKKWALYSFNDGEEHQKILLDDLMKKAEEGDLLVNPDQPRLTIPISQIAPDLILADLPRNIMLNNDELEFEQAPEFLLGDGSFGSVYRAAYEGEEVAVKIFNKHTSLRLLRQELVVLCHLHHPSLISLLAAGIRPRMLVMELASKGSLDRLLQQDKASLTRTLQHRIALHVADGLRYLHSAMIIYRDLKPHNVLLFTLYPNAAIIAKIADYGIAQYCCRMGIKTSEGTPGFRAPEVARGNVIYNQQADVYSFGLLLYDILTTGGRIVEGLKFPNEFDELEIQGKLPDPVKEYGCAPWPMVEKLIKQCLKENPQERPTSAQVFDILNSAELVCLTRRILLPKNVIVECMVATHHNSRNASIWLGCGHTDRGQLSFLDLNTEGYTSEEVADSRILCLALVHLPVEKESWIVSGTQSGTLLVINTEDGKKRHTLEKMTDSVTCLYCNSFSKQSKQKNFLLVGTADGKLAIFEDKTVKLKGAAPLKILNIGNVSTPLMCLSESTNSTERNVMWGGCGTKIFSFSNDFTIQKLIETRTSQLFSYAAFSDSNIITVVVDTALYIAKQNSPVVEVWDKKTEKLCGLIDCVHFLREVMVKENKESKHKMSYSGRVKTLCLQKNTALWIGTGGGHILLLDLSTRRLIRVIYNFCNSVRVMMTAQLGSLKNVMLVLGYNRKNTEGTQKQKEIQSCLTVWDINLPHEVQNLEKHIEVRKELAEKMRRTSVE

Row | Structure (SMILES) | IC50 [nM]
1 | COC1COCCOC[C@@H](C)Oc2ccc3[nH]nc(c3c2)-c2cnn1c2 (stereo partly drawn) [Example 95, (13R)-6-methoxy-13-methyl-8,11,14-trioxa-4,5,19,20-tetraazatetracyclo [13.5.2.1^2,5.0^18,21]tricosa-1(20),2(23),3,15(22),16,18(21)-hexaene] | < 100
2 | C[C@@H]1CCOCCOc2cccc(n2)-c2n[nH]c3ccc(cc23)O1 [Example 56, (13R)-13-methyl-7,10,14-trioxa-19,20,23-triazatetracyclo[13.5.2.1^2,6.0^18,21] tricosa-1(20),2(23),3,5,15(22),16,18(21)-heptaene] | < 10
3 | O=C1COc2cc(-c3ccoc3)cc(c2)-c2n[nH]c3ccc(cc23)OCCCN1 [Example 213, 4-(furan-3-yl)-7,14-dioxa-10,19,20-triazatetracyclo[13.5.2.1^2,6.0^18,21]tricosa-1(20),2(23),3,5,15,17,21-heptaen-9-one] | < 10
4 | C[C@@H]1CCNC(=O)COc2cc(cc(N3CCOCC3)c2)-c2n[nH]c3ccc(cc23)O1 [Example 172, (13R)-13-methyl-4-(morpholin-4-yl)-7,14-dioxa-10,19,20-triazatetracyclo[13.5.2.1^2,6.0^18,21]tricosa-1(20),2(23),3,5,15,17,21-heptaen-9-one] | < 10
5 | C[C@@H]1C[C@@H](C)n2cc(cn2)-c2n[nH]c3ccc(cc23)OCCCO1 [Example 117, (6R,8R)-6,8-dimethyl-9,13-dioxa-4,5,18,19-tetraazatetracyclo[12.5.2.1^2,5.0^17,20] docosa-1(19),2(22),3,14(21),15,17(20)-hexaene] | < 100
6 | C[C@@H]1OCCOCCn2cc(cn2)-c2n[nH]c3ccc(cc23)O[C@@H]1C [Example 99, (12S,13R)-12,13-dimethyl-8,11,14-trioxa-4,5,19,20-tetraazatetracyclo[13.5.2.1^2,5.0^18,21]tricosa-1(20),2(23),3,15(22),16,18(21)-hexaene] | < 10
7 | C[C@@H]1Cn2cc(cn2)-c2n[nH]c3ccc(cc23)OCCOCCO1 [Example 77, (7R)-7-methyl-8,11,14-trioxa-4,5,19,20-tetraazatetracyclo[13.5.2.1^2,5.0^18,21] tricosa-1(20),2(23),3,15(22),16,18(21)-hexaene] | < 100
8 | c1ncc2cc1OCCCNCCOc1ccc3[nH]nc-2c3c1 [Example 238, 7,14-dioxa-4,11,19,20-tetraazatetracyclo[13.5.2.1^2,6.0^18,21]tricosa-1(20),2,4,6(23),15,17,21-heptaene] | < 10
9 | c1cc2[nH]nc3c2cc1OCCCCOCCn1ncc-3n1 [Example 115, 8,13-dioxa-4,5,18,19,22-pentaazatetracyclo[12.5.2.1^2,5.0^17,20]docosa-1(19),2(22),3,14(21),15,17(20)-hexaene] | < 10
10 | CO[C@@H]1CCN(c2cc3nc(n2)O[C@H](C)COCC[C@H](C)Oc2ccc4[nH]nc-3c4c2)C1 [Example 49, (8R,13S)-4-[(3R)-3-methoxypyrrolidin-1-yl]-8,13-dimethyl-7,10,14-trioxa-5,19,20,23-tetraazatetracyclo[13.5.2.1^2,6.0^18,21]tricosa-1(20),2(23),3,5, 15(22),16,18(21)-heptaene] | < 10
11 | C[C@@H]1CCNC(=O)CCn2ncc(n2)-c2n[nH]c3ccc(cc23)O1 [Example 223, (12R)-12-methyl-13-oxa-4,5,9,18,19,22-hexaazatetracyclo[12.5.2.1^2,5.0^17,20]docosa-1(19),2(22),3,14(21),15,17(20)-hexaen-8-one] | < 10
12 | O=C1COc2cncc(c2)-c2n[nH]c3ccc(cc23)OCCCN1 [Example 136, 7,14-dioxa-4,10,19,20-tetraazatetracyclo[13.5.2.1^2,6.0^18,21]tricosa-1(20),2,4,6(23),15,17,21-heptaen-9-one] | < 10
13 | c1cc2[nH]nc3c2cc1OCCOCCCOc1cc-3cc(N2CCOCC2)c1 [Example 3, 4-(morpholin-4-yl)-7,11,14-trioxa-19,20-diazatetracyclo[13.5.2.1^2,6.0^18,21] tricosa-1(20),2(23),3,5,15(22),16,18(21)-heptaene] | < 10
14 | C[C@@H]1COc2ccc3[nH]nc(c3c2)-c2cccc(c2)OCCN[C@H]1C [Example 169, (11S,12S)-11,12-dimethyl-7,14-dioxa-10,19,20-triazatetracyclo[13.5.2.1^2,6.0^18,21]tricosa-1(20),2(23),3,5,15(22),16,18(21)-heptaene] | < 100
15 | C[C@H]1COCCOCCOc2ccc3[nH]nc(c3c2)-c2cnn1c2 [Example 64, (6S)-6-methyl-8,11,14-trioxa-4,5,19,20-tetraazatetra cyclo[13.5.2.1^2,5.0^18,21]tricosa-1(20),2(23),3,15(22),16,18(21)-hexaene] | < 10
16 | C[C@H]1CCOCCCn2cnc(c2)-c2n[nH]c3ccc(cc23)O1 [Example 57, (12S)-12-methyl-9,13-dioxa-3,5,18,19-tetraazatetracyclo [12.5.2.1^2,5.0^17,20] docosa-1(19),2(22),3,14(21),15,17(20)-hexaene] | < 1000

Row | Structure (SMILES) | IC50 [nM]
17 | FC1(F)COCCCn2cc(cn2)-c2n[nH]c3ccc(cc23)OC1 [Example 111, 11,11-difluoro-9,13-dioxa-4,5,18,19-tetraazatetracyclo[12.5.2.1^2,5.0^17,20] docosa-1(19),2(22),3,14(21),15,17(20)-hexaene] | < 100
18 | O=C1COc2cc(cc(N3CCC(F)(F)C3)c2)-c2n[nH]c3ccc(cc23)OCCCN1 [Example 206, 4-(3,3-difluoropyrrolidin-1-yl)-7,14-dioxa-10,19,20-triazatetracyclo[13.5.2.1^2,6.0^18,21]tricosa-1(20),2(23),3,5,15,17,21-heptaen-9-one] | < 10
19 | C[C@H]1CCOCCOc2nc(cc(N3CCCC3)n2)-c2n[nH]c3ccc(cc23)N1 [Example 39, (13S)-13-methyl-4-(pyrrolidin-1-yl)-7,10-dioxa-5,14,19,20,23-pentaazatetra cyclo[13.5.2.1^2,6.0^18,21]tricosa-1(20),2(23),3,5,15(22),16,18(21)-heptaene] | < 10
20 | C[C@@H]1COCCO[C@@H](C)COc2ccc3[nH]nc(c3c2)-c2cnn1c2 [Example 87, (6R,12S)-6,12-dimethyl-8,11,14-trioxa-4,5,19,20-tetraazatetracyclo[13.5.2.1^2,5.0^18,21]tricosa-1(20),2(23),3,15(22),16,18(21)-hexaene] | < 10
21 | Cc1cc2[nH]nc3c2cc1OCCCNCCOc1cncc-3c1 [Example 188, 16-methyl-7,14-dioxa-4,10,19,20-tetraazatetracyclo[13.5.2.1^2,6.0^18,21]tricosa-1(20),2(23),3,5,15(22),16,18(21)-heptaene] | < 10
22 | COCC1CCOc2ccc3[nH]nc(c3c2)-c2cccc(c2)OCC(=O)N1 (single isomer, unassigned) [Example 150, (11S) or (11R)-11-(methoxymethyl)-7,14-dioxa-10,19,20-triazatetracyclo[13.5.2.1^2,6.0^18,21]tricosa-1(20),2(23),3,5,15,17,21-heptaen-9-one] | < 100
23 | C[C@H]1CCCOCCn2ncc(n2)-c2n[nH]c3ccc(cc23)O1 [Example 122, (12S)-12-methyl-8,13-dioxa-4,5,18,19,22-pentaazatetracyclo[12.5.2.1^2,5.0^17,20]docosa-1(19),2(22),3,14(21),15,17(20)-hexaene] | < 10
24 | CC1CCNC(=O)COc2cncc(c2)-c2n[nH]c3ccc(cc23)O1 (centres unmarked) [Example 158, 13-methyl-7,14-dioxa-4,10,19,20-tetraazatetracyclo[13.5.2.1^2,6.0^18,21]tricosa-1(20),2,4,6(23),15,17,21-heptaen-9-one] | < 100
25 | C[C@@H]1CCOCCCn2ncc(n2)-c2n[nH]c3ccc(cc23)O1 [Example 90, (12R)-12-methyl-9,13-dioxa-4,5,18,19,22-pentaazatetracyclo[12.5.2.1^2,5.0^17,20]docosa-1(19),2(22),3,14(21),15,17(20)-hexaene] | < 10
26 | C[C@@H]1CCNCCOc2cncc(c2)-c2n[nH]c3ccc(cc23)O1 [Example 163, (13R)-13-methyl-7,14-dioxa-4,10,19,20-tetraazatetracyclo[13.5.2.1^2,6.0^18,21]tricosa-1(20),2,4,6(23),15(22),16,18(21)-heptaene] | < 10
27 | Cc1cc2nc(n1)OCCOCC[C@H](C)Nc1ccc3[nH]nc-2c3c1 [Example 40, (13S)-4,13-dimethyl-7,10-dioxa-5,14,19,20,23-pentaazatetracyclo[13.5.2.1^2,6.0^18,21]tricosa-1(20),2(23),3,5,15(22),16,18(21)-heptaene] | < 10
28 | C[C@@H]1CCCOCCn2ncc(n2)-c2n[nH]c3ccc(cc23)O1 [Example 124, (12R)-12-methyl-8,13-dioxa-4,5,18,19,22-pentaazatetracyclo [12.5.2.1^2,5.0^17,20]docosa-1(19),2(22),3,14(21),15,17(20)-hexaene] | < 10
29 | O=C1COc2cncc(c2)-c2n[nH]c3ccc(cc23)OCC(F)(F)CN1 [Example 202, 12,12-difluoro-7,14-dioxa-4,10,19,20-tetraazatetracyclo [13.5.2.1^2,6.0^18,21]tricosa-1(20),2,4,6(23),15,17,21-heptaen-9-one] | < 10
30 | O=C1COc2cccc(c2)-c2n[nH]c3ccc(cc23)OCCN1 [Example 192, 7,13-dioxa-10,18,19-triazatetracyclo[12.5.2.1^2,6.0^17,20]docosa-1(19),2(22),3,5,14(21),15,17(20)-heptaen-9-one] | < 1000
31 | CC(C)Oc1cc2cc(c1)-c1n[nH]c3ccc(cc13)OCCCN(C)CCO2 [Example 239, 10-methyl-4-(propan-2-yloxy)-7,14-dioxa-10,19,20-triazatetracyclo[13.5.2.1^2,6.0^18,21]tricosa-1(20),2,4,6(23),15,17,21-heptaene] | < 100
32 | COC1CN(c2cc3nc(n2)OCCCOC[C@H](C)Oc2ccc4[nH]nc-3c4c2)C1 [Example 27, (13S)-4-(3-methoxyazetidin-1-yl)-13-methyl-7,11,14-trioxa-5,19,20,23-tetra azatetracyclo[13.5.2.1^2,6.0^18,21]tricosa-1(20),2(23),3,5,15(22),16,18(21) heptaene] | < 10
